US20240124442A1, “TRICYCLIC-AMIDO-BICYCLIC PRMT5 INHIBITORS” (AMGEN INC., priority 2021, published 2024)
Like-named read-outs stand apart in the source and are kept apart here.

Assays:
HCT116 MTAP null cells = test: HCT116 MTAP null cell line proliferation / cell viability (CellTiter-Glo, 6 days); format: cell-based; conditions: HCT116 MTAP null cells, 6 days treatment, CellTiter-Glo cell viability, read-out: HCT-116 MTAP null IC50
How it was run: (§1)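 Viability read by CellTiter-Glo luminescence after 6 days of compound treatment of HCT116 WT and MTAP-null cells (RPMI 1640, 10% FBS). Dose series were 1:3 steps from 1 or 10 μM (8–9 points), or 1:2 steps from 10 or 50 μM (22 points). IC50 from 4-parameter logistic or fixed-slope sigmoidal fit.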

HCT116 WT cells = test: HCT116 WT (parent) cell line proliferation / cell viability (CellTiter-Glo, 6 days); format: cell-based; conditions: 6 days treatment
How it was run: as §1

Row | IC50 (HCT116 MTAP null cells; 144 h) | IC50 (HCT116 WT cells; Homo sapiens, HCT-116, 144 h) | IC50 (HCT116 MTAP null cells) | IC50 (HCT116 WT cells; read-out: HCT-116 WT IC50) | Structure (SMILES)
1 | 129 nM | 4500 nM | – | – | CN(C(=O)c1cnc2nc(N)c3c(c2c1)COC3)[C@@H]1COCc2cc(Br)ccc21 (single isomer, unassigned) [Example 590]
2 | 418 nM | 3280 nM | – | – | CN(C(=O)c1cc2c(cc1F)nc(N)c1cnn(C)c12)[C@H]1COCc2c1ccc(C(F)(F)F)c2F (single isomer, unassigned) [Example 433]
3 | 860 nM | 2630 nM | – | – | CN(C(=O)c1ccc2nc(N)c3c(c2c1)COC3)[C@H]1COc2cc(C3=CCOCC3)ccc21 (single isomer, unassigned) [Example 613]
4 | 39 nM | 1610 nM | – | – | CN(C(=O)c1cc2c(cc1F)nc(N)c1cnn(C)c12)[C@@H]1COCc2ncccc21 (single isomer, unassigned) [Example 423]
5 | 15 nM | 703 nM | – | – | CN(C(=O)c1ccc2nc(N)c3cn[nH]c3c2c1)[C@@H]1COc2cc(C(F)(F)F)ccc21 [Example 261, 4-amino-N-methyl-N-((3S)-6-(trifluoromethyl)-2,3-dihydro-1-benzofuran-3-yl)-1H-pyrazolo[4,3-c]quinoline-8-carboxamide]
6 | 10 nM | 418 nM | – | – | C[C@H]1OCc2c1c(N)nc1cc(F)c(C(=O)N(C3CC3)[C@@H]3COc4cc(C(F)(F)F)ccc43)cc21 [Example 467, (3R)-4-amino-N-cyclopropyl-7-fluoro-3-methyl-N-((3S)-6-(trifluoromethyl)-2,3-dihydro-1-benzofuran-3-yl)-1,3-dihydrofuro[3,4-c]quinoline-8-carboxamide]
7 | 4260 nM | 21300 nM | – | – | C[C@H]1OC[C@H](N(C)C(=O)c2ccc3nc(N)c4c(cnn4C)c3c2)c2ccc(C(F)(F)F)cc21 (single isomer, unassigned) [Example 602]
8 | 6 nM | 414 nM | – | – | CN(C(=O)c1ccc2nc(N)c3cnn(C)c3c2c1)[C@@H]1COCc2c1ccc(C(F)(F)F)c2F (single isomer, unassigned) [Example 416]
9 | 461 nM | 5050 nM | – | – | CN(C(=O)c1ccc2nc(N)c3ncncc3c2c1)[C@@H]1COCc2nc(C(F)(F)F)ccc21 [Example 280, 5-amino-N-methyl-N-((5S)-2-(trifluoromethyl)-5,8-dihydro-6H-pyrano[3,4-b]pyridin-5-yl)pyrimido[4,5-c]quinoline-9-carboxamide]
10 | 1840 nM | 23600 nM | – | – | C[C@H]1OCc2c1c(N)nc1ccc(C(=O)N(C)[C@H]3COc4cc(C(F)(F)F)ccc43)cc21 (single isomer, unassigned) [Example 538]
11 | – | – | 48 nM | 2210 nM | CN(C(=O)c1ccc2nc(N)c3c(c2c1)COC3)[C@@H]1COc2cc([N+](=O)[O-])ccc21 (single isomer, unassigned) [Example 319]
12 | 24 nM | 1710 nM | – | – | COc1ccc2c(c1)COC[C@H]2N(C)C(=O)c1ccc2nc(N)c3cnn(C)c3c2c1 (single isomer, unassigned) [Example 408]
13 | 48 nM | 3010 nM | – | – | CN(C(=O)c1cc2c(cc1F)nc(N)c1c2cnn1C)[C@@H]1COCc2c1ccc(C(F)(F)F)c2F (single isomer, unassigned) [Example 440]
14 | 23 nM | 611 nM | – | – | CN(C(=O)c1cc2c(cn1)nc(N)c1ccncc12)[C@@H]1COCc2nc(C(F)(F)F)ccc21 [Example 281, 5-amino-N-methyl-N-((5S)-2-(trifluoromethyl)-5,8-dihydro-6H-pyrano[3,4-b]pyridin-5-yl)pyrido[4,3-c][1,7]naph-thyridine-9-carboxamide]
15 | 120 nM | 13100 nM | – | – | CN(C(=O)c1ccc2nc(N)c3cnn(C)c3c2c1)[C@@H]1COc2ccccc21 [Example 673, (S)-4-amino-N-(2,3-dihydrobenzofuran-3-yl)-N,1-dimethyl-1H-pyrazolo[4,3-c]quinoline-8-carboxamide 2,2,2-trifluoroacetate]
16 | 37 nM | 1520 nM | – | – | Cc1nc2nc(N)c3cnn(C)c3c2cc1C(=O)N(C)[C@@H]1COCc2cc(C#N)ccc21 [Example 299, 4-amino-N-((4S)-7-cyano-3,4-dihydro-1H-2-benzopyran-4-yl)-N,1,7-trimethyl-1H-pyr-azolo[4,3-c][1,8]naphthyridine-8-carboxamide]

Row | IC50 (HCT116 MTAP null cells; 144 h) | IC50 (HCT116 WT cells; Homo sapiens, HCT-116, 144 h) | IC50 (HCT116 MTAP null cells) | IC50 (HCT116 WT cells; read-out: HCT-116 WT IC50) | Structure (SMILES)
17 | 55 nM | 1650 nM | – | – | CN(C(=O)c1ccc2nc(N)c3cnn(C)c3c2c1)[C@@H]1COc2cc(C3=CCCCC3)ccc21 [Example 617, 4-amino-N-((3S)-6-(1-cyclohexen-1-yl)-2,3-dihydro-1-benzofuran-3-yl)-N,1-dimethyl-1H-pyrazolo[4,3-c]quinoline-8-carboxamide]
18 | 316 nM | 12600 nM | – | – | CN(C(=O)c1ccc2nc(N)c3c(c2c1)COC3)C1COc2cc(C(F)(F)F)ncc21 (racemic) [Example 445, 4-amino-N-methyl-N-((3R)-6-(trifluoromethyl)-2,3-dihydrofuro[3,2-c]pyridin-3-yl)-1,3-dihydrofuro[3,4-c]quinoline-8-carboxamide and 4-amino-N-methyl-N-((3S)-6-(trifluoromethyl)-2,3-dihydrofuro[3,2-c]pyridin-3-yl)-1,3-dihydrofuro[3,4-c]quinoline-8-carboxamide]
19 | 4 nM | 691 nM | – | – | CN(C(=O)c1ccc2nc(N)c3cnn(C)c3c2c1)[C@@H]1COc2cc(-c3cnn(C)c3)ccc21 [Example 629, 4-amino-N,1-dimethyl-N-((3S)-6-(1-methyl-1H-pyrazol-4-yl)-2,3-dihydro-1-benzofuran-3-yl)-1H-pyrazolo[4,3-c]quinoline-8-carboxamide]
20 | 10 nM | 786 nM | – | – | CN(C(=O)c1ccc2nc(N)c3cnn(C)c3c2c1)[C@@H]1COc2cc(C3=CCOCC3)ccc21 [Example 618, 4-amino-N-((3S)-6-(3,6-dihydro-2H-pyran-4-yl)-2,3-dihydro-1-benzofuran-3-yl)-N,1-dimethyl-1H-pyrazolo[4,3-c]quinoline-8-carboxamide]
21 | 519 nM | 4130 nM | – | – | CN(C(=O)c1ccc2nc(N)c3cnn(C)c3c2c1)[C@H]1CCc2cc(Br)ccc21 (single isomer, unassigned) [Example 369]
22 | 134 nM | 9210 nM | – | – | CN(C(=O)c1cc2c(cc1F)nc(N)c1cnn(C)c12)[C@H]1COc2cc(OC(F)F)ccc21 (single isomer, unassigned) [Example 570]
23 | 319 nM | 1770 nM | – | – | CN(C(=O)c1ccc2nc(N)c3cnn(C)c3c2c1)[C@H]1COCc2cc(-c3cnn(C(F)(F)F)c3)ccc21 (single isomer, unassigned) [Example 664]
24 | 18 nM | 635 nM | – | – | CN(C(=O)c1cc2c(cc1Cl)nc(N)c1cnn(C)c12)C1CCc2nc(C(F)(F)F)ccc21 (racemic) [Example 248, 4-amino-7-chloro-N,1-dimethyl-N-((5R)-2-(trifluoromethyl)-6,7-dihydro-5H-cyclopenta[b]-pyridin-5-yl)-1H-pyrazolo[4,3-c]quinoline-8-carboxamide and 4-amino-7-chloro-N,1-dimethyl-N-((5S)-2-(trifluoromethyl)-6,7-dihydro-5H-cyclopenta[b]-pyridin-5-yl)-1H-pyrazolo[4,3-c]quinoline-8-carboxamide]
25 | 168 nM | 7960 nM | – | – | Cc1ccc2c(c1)CC[C@H]2N(C)C(=O)c1ccc2nc(N)c3cnn(C)c3c2c1 (single isomer, unassigned) [Example 680]
26 | 91 nM | 5440 nM | – | – | CN(C(=O)c1cc2c3c(c(N)nc2cn1)COC3)[C@@H]1COc2cc(Br)ccc21 (single isomer, unassigned) [Example 345]
27 | 723 nM | 19000 nM | – | – | CN(C(=O)c1ccc2nc(N)c3cnn(C)c3c2c1)C1c2ccc(C(F)(F)F)nc2CC1(F)F (racemic) [Example 233, 4-amino-N-((5R)-6,6-difluoro-2-(trifluoromethyl)-6,7-dihydro-5H-cyclopenta[b]pyridin-5-yl)-N,1-dimethyl-1H-pyrazolo[4,3-c]quinoline-8-carboxamide and 4-amino-N-((5S)-6,6-difluoro-2-(trifluoromethyl)-6,7-dihydro-5H-cyclopenta[b]pyridin-5-yl)-N,1-dimethyl-1H-pyrazolo[4,3-c]quinoline-8-carboxamide]
28 | 3250 nM | 50000 nM | – | – | CN(C(=O)c1cc2c3c(c(N)nc2cc1F)COC3)[C@H]1COc2nc(C(F)(F)F)ccc21 (single isomer, unassigned) [Example 352]
29 | 9 nM | 127 nM | – | – | CN(C(=O)c1cc2c(cc1F)nc(N)c1cnn(C)c12)[C@@H]1COCc2c1ccc(C(F)(F)F)c2F (single isomer, unassigned) [Example 432]
30 | 222 nM | 2490 nM | – | – | CN(C(=O)c1ccc2nc(N)c3cnn(C)c3c2c1)[C@H]1COc2cc(C(F)(F)F)cc(Cl)c21 [Example 232, 4-amino-N-((3R)-4-chloro-6-(trifluoromethyl)-2,3-dihydro-1-benzofuran-3-yl)-N,1-dimethyl-1H-pyrazolo[4,3-c]-quinoline-8-carboxamide]
31 | 5 nM | 511 nM | – | – | CN(C(=O)c1ccc2nc(N)c3cnn(C)c3c2c1)[C@@H]1COc2cc(-c3cccnc3)ccc21 [Example 628, 4-amino-N,1-dimethyl-N-((3S)-6-(3-pyridinyl)-2,3-dihydro-1-benzofuran-3-yl)-1H-pyrazolo[4,3-c]quinoline-8-carboxamide]
32 | 599 nM | 18700 nM | – | – | CCN(C(=O)c1ccc2nc(N)c3c(c2c1)CO[C@@H]3C)[C@H]1COCc2cc(Br)ccc21 (single isomer, unassigned) [Example 397]
